We go through seven compounds from US6001880A, “Alkylenediamine derivative, anti-ulcer drug, and antibacterial drug” (Shiseido Co., Ltd., priority 1997, dated 1999).

In assay [1] the test system is isolated gastric fundic gland. In words: CAP: Acid Secretion Inhibition Test In Vitro ([14C]-aminopyrine uptake). The format is cell-based, rabbit (male Japanese White). Particulars: Oryctolagus cuniculus; final concentration 10^-5 M; histamine 10^-5 M stimulation; read-out: CAP: acid secretion inhibitory rate. The method in brief: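 Collagenase-isolated rabbit gastric fundic glands (1.6×10^6 cells/ml) were stimulated with 10^-5 M histamine in the presence of test compound and [14C]-aminopyrine, then shaken 40 min at 37 °C. Pellet versus supernatant radioactivity, corrected with a 20 mM NaSCN sample, gives specific aminopyrine accumulation as the acid-secretion index; duplicates.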

Assay [2] relates to stress ulcer formation in rats. In words: WIS: Restraint and Water Immersion Stress-Induced Ulcer Inhibition Test. The format is in vivo, rat (male Crj:SD or Slc:SD). Particulars: 100 mg/kg oral, 10 minutes before 7 h restraint and water immersion (21° C.). The method in brief: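 Overnight-fasted male SD rats (6–7 weeks, n=5–8) dosed orally at 100 mg/kg in 0.3% CMC-Na or 0.05% Tween 80; 10 min later restrained and immersed to xiphoid in 21° C water for 7 h. Ulcer index is summed glandular erosion length; inhibition % = (1 − UI sample/UI control).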

For the compound `CCN(CC)CCNC(=O)c1cc(OCC=C(C)C)cc(OCC=C(C)C)c1` [Example 14], in assay [1], the inhibition at 10 µM turned out to be 100%. Besides, the “WIS: ulcer formation inhibitory rate” value in assay [2] stood at 86%.
`CCN(CC)CCNC(=O)c1cc(OC/C=C(\C)CCC=C(C)C)ccc1OC/C=C(\C)CCC=C(C)C` [Example 16]: the inhibition at 10 µM in assay [1] was 100%. For the same compound, the “WIS: ulcer formation inhibitory rate” value in assay [2] is 82%.
Taken in the same sequence, the figures for `CC(C)=CCC/C(C)=C/COc1ccc(OC/C=C(\C)CCC=C(C)C)c(C(=O)NCCN(C(C)C)C(C)C)c1` [Example 17] were 100% and 62%.
The like results for `CCN(CC=C(C)C)c1ccc(C(=O)NCCN(C(C)C)C(C)C)cc1` [Example 28] were, in that order, 27.3% and 87%.
The like results for `CCN(CC)CCNC(=O)c1cc(OC)c(OC/C=C(\C)CCC=C(C)C)c(OC)c1` [Example 37] were, in that order, 99.3% and 69%.
Take `CCN(CC)CCNC(=O)c1cc(OC)c(OC/C=C(/C)CCC=C(C)C)c(OC)c1` [Example 38]: the inhibition at 10 µM in assay [1] was 99.8%. Also, in assay [2], the “WIS: ulcer formation inhibitory rate” value came out at 86%.
The like results for `COc1cc(C(=O)NCCN(C)C)cc(OC/C=C(\C)CCC=C(C)C)c1OC` [Example 42] were, in that order, 98.6% and 81%.
